Source: patent US10231954B2, “Neurodegenerative therapies” (LYTIX BIOPHARMA AS, priority 2014, dated 2019)
Where two headings read alike, the source gives them in different places.

Assays:
Assay type in all cases: biochemical
RSK2 = RSK2 (Homo sapiens, UniProt P51812); assay: Kinase profiling RSK2; settings: for remaining activity at 100 µM: read-out: residual kinase activity, RSK2
From the text: (§1) Any value less that 25 is considered to be highly significant inhibition.

CHK2 = CHK2 (Homo sapiens, UniProt O96017); assay: Kinase profiling CHK2; settings: read-out: residual kinase activity, CHK2
CHK2, sequence (O96017 whole entry, species assumed): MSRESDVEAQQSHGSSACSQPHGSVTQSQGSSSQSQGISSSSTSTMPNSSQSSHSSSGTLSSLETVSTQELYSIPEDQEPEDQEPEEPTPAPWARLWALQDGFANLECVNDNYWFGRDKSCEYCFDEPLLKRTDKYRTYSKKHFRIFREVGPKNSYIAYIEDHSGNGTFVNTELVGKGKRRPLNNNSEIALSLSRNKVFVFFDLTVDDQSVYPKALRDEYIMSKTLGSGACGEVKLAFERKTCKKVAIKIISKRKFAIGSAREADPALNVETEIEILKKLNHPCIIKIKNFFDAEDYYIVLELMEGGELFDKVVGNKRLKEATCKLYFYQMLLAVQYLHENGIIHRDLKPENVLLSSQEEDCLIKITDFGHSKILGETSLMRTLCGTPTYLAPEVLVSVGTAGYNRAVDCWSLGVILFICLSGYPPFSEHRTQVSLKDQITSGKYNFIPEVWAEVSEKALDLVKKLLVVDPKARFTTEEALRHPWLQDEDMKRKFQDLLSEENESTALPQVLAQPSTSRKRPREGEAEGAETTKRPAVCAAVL
From the text: as §1

MLK1 = MLK1 (Homo sapiens, UniProt P80192); assay: Kinase profiling MLK1; settings: read-out: residual kinase activity, MLK1
From the text: as §1

BTK = BTK (Homo sapiens, UniProt Q06187); assay: Kinase profiling BTK; settings: read-out: residual kinase activity, BTK
BTK, sequence (Q06187 whole entry, species assumed): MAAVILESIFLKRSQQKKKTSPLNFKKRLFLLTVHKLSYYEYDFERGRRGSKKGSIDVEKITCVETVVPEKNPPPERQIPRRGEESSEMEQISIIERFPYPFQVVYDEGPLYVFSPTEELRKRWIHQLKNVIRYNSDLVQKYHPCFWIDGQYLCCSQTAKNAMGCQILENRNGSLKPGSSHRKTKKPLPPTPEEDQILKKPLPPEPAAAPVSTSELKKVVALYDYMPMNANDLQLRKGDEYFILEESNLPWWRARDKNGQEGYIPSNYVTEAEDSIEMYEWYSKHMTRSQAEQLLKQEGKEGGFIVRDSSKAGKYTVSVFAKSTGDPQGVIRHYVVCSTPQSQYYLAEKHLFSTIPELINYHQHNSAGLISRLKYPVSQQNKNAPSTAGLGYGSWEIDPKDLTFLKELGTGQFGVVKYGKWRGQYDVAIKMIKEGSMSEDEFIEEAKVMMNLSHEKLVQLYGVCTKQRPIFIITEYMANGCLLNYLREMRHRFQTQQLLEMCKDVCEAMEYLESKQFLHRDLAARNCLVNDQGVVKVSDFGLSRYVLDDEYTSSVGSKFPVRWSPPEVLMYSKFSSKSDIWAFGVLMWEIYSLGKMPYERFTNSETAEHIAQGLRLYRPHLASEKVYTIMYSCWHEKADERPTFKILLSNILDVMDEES
From the text: as §1

PKD1 = target: T1, PKD1 (Homo sapiens, UniProt Q15139); assay: Kinase profiling PKD1; settings: for remaining activity at 100 µM: read-out: residual kinase activity, PKD1
T1 sequence (Q15139 1-912): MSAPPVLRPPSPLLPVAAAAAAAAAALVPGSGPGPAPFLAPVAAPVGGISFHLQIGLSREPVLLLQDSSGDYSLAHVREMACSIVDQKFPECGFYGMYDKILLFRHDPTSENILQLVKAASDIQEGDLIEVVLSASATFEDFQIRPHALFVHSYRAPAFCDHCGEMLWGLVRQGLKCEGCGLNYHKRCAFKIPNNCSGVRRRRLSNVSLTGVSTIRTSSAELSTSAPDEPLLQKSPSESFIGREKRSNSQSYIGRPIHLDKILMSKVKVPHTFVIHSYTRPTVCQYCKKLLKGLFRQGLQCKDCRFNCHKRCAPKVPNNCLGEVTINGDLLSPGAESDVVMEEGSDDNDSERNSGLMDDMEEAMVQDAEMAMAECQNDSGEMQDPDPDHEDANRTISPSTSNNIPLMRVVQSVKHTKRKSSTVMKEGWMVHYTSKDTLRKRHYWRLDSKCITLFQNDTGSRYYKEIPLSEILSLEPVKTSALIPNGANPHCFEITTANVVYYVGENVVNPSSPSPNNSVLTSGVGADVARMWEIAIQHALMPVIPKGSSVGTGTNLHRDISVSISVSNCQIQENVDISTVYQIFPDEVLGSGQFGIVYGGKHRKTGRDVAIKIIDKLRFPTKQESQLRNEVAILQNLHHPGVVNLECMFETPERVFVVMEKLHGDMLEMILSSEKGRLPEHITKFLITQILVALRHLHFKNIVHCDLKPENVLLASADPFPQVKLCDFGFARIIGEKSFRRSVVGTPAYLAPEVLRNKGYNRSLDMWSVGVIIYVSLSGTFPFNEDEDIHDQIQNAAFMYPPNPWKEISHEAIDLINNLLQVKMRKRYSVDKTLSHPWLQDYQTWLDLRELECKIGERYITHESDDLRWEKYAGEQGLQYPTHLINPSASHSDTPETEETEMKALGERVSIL
From the text: as §1

CK2 = assay: Kinase profiling CK2; settings: 100 micromolar inhibitor concentration; 100 is no change
From the text: as §1

ERK1 = ERK1 (Homo sapiens, UniProt P27361); assay: Kinase profiling ERK1; settings: for remaining activity at 100 µM: read-out: residual kinase activity, ERK1
From the text: as §1

RIPK2 = RIPK2 (Homo sapiens, UniProt O43353); assay: Kinase profiling RIPK2; settings: read-out: residual kinase activity, RIPK2
RIPK2, sequence (O43353 whole entry, species assumed): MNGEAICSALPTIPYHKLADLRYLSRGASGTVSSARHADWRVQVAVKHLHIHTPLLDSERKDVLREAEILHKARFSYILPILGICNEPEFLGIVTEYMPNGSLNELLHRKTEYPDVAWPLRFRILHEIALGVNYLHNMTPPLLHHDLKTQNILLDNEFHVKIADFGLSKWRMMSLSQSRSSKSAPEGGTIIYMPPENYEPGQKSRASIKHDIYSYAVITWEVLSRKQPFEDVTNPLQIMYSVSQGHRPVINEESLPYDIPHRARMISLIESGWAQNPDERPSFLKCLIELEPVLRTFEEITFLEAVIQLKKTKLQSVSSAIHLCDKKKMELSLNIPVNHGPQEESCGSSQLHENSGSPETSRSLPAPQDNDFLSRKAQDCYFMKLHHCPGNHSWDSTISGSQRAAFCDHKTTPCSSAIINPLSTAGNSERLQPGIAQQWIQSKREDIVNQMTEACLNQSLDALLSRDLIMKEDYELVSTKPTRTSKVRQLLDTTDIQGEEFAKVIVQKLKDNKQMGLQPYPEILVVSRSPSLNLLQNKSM
From the text: as §1

TIE2 = TIE2 (Homo sapiens, UniProt Q02763); assay: Kinase profiling TIE2; settings: read-out: residual kinase activity, TIE2
TIE2, sequence (Q02763 23-1124, species assumed): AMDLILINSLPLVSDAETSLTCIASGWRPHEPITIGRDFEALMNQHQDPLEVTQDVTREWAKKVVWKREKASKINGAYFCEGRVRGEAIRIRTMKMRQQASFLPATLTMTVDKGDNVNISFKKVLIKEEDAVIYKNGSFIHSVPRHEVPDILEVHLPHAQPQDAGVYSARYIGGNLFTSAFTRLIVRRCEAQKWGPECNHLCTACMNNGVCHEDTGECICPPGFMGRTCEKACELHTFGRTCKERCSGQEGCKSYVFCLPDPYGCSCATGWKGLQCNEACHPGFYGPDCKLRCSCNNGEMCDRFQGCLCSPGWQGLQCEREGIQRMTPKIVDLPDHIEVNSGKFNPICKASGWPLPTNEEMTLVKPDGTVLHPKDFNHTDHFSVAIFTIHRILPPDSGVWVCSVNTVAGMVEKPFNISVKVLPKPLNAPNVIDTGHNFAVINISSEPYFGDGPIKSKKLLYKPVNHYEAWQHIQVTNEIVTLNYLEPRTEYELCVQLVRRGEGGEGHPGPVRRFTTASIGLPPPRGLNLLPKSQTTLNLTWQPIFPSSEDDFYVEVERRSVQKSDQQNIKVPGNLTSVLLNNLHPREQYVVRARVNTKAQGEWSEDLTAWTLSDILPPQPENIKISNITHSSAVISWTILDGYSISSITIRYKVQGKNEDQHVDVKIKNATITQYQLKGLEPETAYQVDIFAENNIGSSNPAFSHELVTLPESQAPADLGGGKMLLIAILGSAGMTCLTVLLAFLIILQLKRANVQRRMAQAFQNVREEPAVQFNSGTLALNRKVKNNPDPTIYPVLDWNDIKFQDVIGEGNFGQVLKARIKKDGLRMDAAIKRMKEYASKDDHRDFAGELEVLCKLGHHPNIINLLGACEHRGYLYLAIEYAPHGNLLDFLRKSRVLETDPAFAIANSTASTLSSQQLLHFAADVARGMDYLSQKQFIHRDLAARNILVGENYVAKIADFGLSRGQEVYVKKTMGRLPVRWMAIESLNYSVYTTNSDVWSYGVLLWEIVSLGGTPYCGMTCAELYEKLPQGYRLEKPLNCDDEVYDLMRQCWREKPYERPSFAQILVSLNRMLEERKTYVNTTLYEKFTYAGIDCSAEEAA
From the text: as §1

EPH-A2 = EPH-A2 (Homo sapiens, UniProt P29317); assay: Kinase profiling EPH-A2; settings: read-out: residual kinase activity, EPH-A2
From the text: as §1

EF2K = EF2K (Homo sapiens, UniProt O00418); assay: Kinase profiling EF2K; settings: read-out: residual kinase activity, EF2K
From the text: as §1

LKB1 = target: T2, LKB1 (Homo sapiens, UniProt Q15831); assay: Kinase profiling LKB1; settings: read-out: residual kinase activity, LKB1
T2 sequence (Q15831 1-433): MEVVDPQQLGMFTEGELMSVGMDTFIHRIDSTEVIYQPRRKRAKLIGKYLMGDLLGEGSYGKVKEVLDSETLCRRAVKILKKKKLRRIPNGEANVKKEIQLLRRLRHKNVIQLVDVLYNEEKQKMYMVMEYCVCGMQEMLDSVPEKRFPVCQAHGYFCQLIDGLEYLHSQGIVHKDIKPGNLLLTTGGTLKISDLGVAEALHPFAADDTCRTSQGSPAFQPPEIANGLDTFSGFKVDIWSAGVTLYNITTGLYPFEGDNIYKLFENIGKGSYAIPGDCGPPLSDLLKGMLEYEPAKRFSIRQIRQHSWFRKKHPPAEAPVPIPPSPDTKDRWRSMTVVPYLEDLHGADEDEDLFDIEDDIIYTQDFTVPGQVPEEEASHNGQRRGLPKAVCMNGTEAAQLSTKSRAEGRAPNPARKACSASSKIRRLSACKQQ
T2 sequence (Q7RTN6 1-431 partner): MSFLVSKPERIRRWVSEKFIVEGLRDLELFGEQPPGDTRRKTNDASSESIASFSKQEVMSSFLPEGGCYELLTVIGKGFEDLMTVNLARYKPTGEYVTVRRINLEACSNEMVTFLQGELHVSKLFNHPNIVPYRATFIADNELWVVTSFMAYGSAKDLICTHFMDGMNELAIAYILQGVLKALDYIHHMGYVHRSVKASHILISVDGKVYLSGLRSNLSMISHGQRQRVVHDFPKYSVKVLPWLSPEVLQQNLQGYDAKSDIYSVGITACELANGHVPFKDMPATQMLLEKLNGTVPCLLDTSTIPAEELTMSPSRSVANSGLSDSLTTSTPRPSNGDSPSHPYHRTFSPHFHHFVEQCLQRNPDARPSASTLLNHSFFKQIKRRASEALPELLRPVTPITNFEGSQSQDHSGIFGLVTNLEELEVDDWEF
T2 sequence (Q9Y376 1-341 partner): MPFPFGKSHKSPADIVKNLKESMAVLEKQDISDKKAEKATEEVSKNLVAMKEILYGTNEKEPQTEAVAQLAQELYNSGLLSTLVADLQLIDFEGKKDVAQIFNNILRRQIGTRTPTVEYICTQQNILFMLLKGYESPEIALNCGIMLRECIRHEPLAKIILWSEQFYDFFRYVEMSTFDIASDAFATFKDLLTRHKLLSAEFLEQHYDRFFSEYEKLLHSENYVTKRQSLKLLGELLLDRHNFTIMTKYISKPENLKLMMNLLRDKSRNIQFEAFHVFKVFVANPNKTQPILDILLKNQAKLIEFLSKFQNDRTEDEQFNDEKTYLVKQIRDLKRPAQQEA
From the text: as §1

JNK3 = JNK3 (Homo sapiens, UniProt P53779); assay: Kinase profiling JNK3; settings: for remaining activity at 100 µM: read-out: residual kinase activity, JNK3
JNK3, sequence (P53779 whole entry, species assumed): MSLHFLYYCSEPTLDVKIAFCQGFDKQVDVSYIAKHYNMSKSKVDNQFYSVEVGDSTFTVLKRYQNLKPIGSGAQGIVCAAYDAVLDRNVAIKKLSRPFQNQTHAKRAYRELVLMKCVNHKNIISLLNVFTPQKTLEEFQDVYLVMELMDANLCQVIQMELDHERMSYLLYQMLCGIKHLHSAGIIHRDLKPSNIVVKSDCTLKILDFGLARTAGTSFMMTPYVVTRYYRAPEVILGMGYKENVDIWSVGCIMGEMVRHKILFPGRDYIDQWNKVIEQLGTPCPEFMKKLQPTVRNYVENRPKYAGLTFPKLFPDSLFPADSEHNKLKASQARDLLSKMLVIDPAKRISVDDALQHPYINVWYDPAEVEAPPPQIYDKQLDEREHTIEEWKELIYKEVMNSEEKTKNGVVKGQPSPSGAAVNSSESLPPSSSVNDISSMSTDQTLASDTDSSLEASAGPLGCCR
From the text: as §1

RSK1 = RSK1 (Homo sapiens, UniProt Q15418); assay: Kinase profiling RSK1; settings: for remaining activity at 100 µM: read-out: residual kinase activity, RSK1
RSK1, sequence (Q15418 whole entry, species assumed): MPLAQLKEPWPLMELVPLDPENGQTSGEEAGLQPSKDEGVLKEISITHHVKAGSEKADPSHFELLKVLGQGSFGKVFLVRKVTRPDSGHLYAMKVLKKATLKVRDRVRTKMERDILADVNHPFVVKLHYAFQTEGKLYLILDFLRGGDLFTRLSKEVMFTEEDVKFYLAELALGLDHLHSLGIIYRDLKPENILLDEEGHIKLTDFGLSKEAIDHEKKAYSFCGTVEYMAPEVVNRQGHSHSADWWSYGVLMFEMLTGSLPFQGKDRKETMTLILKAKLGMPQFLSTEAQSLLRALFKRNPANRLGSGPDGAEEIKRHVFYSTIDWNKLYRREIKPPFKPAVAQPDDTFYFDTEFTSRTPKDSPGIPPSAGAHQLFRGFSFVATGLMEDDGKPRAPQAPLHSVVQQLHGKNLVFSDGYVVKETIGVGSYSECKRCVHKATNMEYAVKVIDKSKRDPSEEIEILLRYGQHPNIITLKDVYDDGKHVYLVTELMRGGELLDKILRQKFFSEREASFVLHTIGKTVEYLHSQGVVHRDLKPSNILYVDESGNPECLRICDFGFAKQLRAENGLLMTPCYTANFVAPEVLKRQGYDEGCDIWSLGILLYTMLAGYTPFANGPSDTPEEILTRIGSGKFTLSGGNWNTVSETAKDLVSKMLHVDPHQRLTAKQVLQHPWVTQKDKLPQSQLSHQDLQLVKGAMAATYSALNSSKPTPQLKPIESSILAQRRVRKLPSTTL
From the text: as §1

[1] = 100 micromolar inhibitor concentration, 100 is no change

RSK2, sequence (P51812 whole entry, species assumed): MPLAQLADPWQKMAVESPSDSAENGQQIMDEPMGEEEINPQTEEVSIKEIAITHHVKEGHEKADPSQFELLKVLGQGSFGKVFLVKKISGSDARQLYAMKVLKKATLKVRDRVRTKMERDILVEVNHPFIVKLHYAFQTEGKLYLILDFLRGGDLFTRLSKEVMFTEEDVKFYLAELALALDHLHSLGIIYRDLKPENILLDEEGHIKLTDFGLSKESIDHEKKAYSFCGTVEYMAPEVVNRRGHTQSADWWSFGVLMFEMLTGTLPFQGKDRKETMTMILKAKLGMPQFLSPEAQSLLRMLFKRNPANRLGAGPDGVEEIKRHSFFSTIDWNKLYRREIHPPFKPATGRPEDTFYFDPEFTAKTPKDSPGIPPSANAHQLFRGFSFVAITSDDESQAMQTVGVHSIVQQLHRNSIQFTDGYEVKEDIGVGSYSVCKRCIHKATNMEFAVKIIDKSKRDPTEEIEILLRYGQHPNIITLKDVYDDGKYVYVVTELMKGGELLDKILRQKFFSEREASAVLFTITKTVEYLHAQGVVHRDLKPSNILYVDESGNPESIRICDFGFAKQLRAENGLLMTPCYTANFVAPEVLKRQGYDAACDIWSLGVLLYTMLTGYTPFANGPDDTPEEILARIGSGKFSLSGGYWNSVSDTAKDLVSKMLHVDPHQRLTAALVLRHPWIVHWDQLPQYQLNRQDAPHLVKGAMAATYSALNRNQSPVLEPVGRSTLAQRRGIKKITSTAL

Row | Compound | residual kinase activity, CK2 (CK2) | remaining activity at 100 µM (RSK2; [1]) | remaining activity at 100 µM (CHK2; [1]) | remaining activity at 100 µM (MLK1; [1]) | remaining activity at 100 µM (BTK; [1]) | remaining activity at 100 µM (PKD1; [1]) | remaining activity at 100 µM (ERK1; [1]) | remaining activity at 100 µM (RIPK2; [1]) | remaining activity at 100 µM (TIE2; [1]) | remaining activity at 100 µM (EPH-A2; [1]) | remaining activity at 100 µM (EF2K; [1]) | remaining activity at 100 µM (LKB1; [1]) | remaining activity at 100 µM (JNK3; [1]) | remaining activity at 100 µM (RSK1; [1]) | residual kinase activity, RSK2 (RSK2; [1]) | residual kinase activity, PKD1 (PKD1; [1]) | residual kinase activity, ERK1 (ERK1; [1]) | residual kinase activity, JNK3 (JNK3; [1]) | residual kinase activity, RSK1 (RSK1; [1]) | further results
1 | CC(=O)Nc1nc2cc(O)ccc2s1 [Compound 01-66, N-(5-hydroxybenzo[d]thiazol-2-yl)acetamide] | 54 | – | – | – | – | – | – | – | – | – | – | – | – | – | – | – | – | – | – | remaining activity at 100 µM (RSK2): 66%; remaining activity at 100 µM (CHK2): 31%; remaining activity at 100 µM (MLK1): 39%; remaining activity at 100 µM (BTK): 67%; remaining activity at 100 µM (PKD1): 30%; remaining activity at 100 µM (ERK1): 61%; remaining activity at 100 µM (RIPK2): 29%; remaining activity at 100 µM (TIE2): 75%; remaining activity at 100 µM (EPH-A2): 67%; remaining activity at 100 µM (EF2K): 76%; remaining activity at 100 µM (LKB1): 38%; remaining activity at 100 µM (JNK3): 37%; remaining activity at 100 µM (RSK1): 44%
2 | CC(=O)Nc1nc2ccc(O)cc2s1 [Compound 01-71] | 23 | 48% | 17% | 11% | 69% | 37% | 65% | 22% | 65% | 66% | 75% | 17% | 66% | 25% | – | – | – | – | – | –
3 | CC(=O)Nc1nc2ccc(C(F)(F)F)cc2s1 [Compound 01-90] | 92 | 92% | 43% | 39% | 73% | 119% | 100% | 23% | 60% | 67% | 103% | 79% | 76% | 74% | – | – | – | – | – | –
4 | CC(=O)Nc1nc2ccc(C#N)cc2s1 [Compound 01-94] | 66 | 87% | 30% | 34% | 98% | 97% | 97% | 17% | 85% | 73% | 98% | 35% | 53% | 51% | – | – | – | – | – | –
5 | CC(=O)Nc1cccc(C(=O)Nc2nc3ccc(O)cc3s2)c1 [Compound 03-58] | – | – | – | – | – | – | – | – | – | – | – | – | – | – | 51 | 54 | 84 | 51 | 35 | –
6 | CC(=O)NC(C)C(=O)Nc1nc2ccc(C(F)(F)F)cc2s1 (stereo not drawn) [Compound 03-80] | – | – | – | – | – | – | – | – | – | – | – | – | – | – | 66 | 82 | 94 | 79 | 90 | –
